For the assay, the target named is T1, EP3 membrane (EP3 receptor) (Homo sapiens, UniProt P43115).
T1 construct: purchased Millipore HTS092M
T1 sequence (P43115 1-390): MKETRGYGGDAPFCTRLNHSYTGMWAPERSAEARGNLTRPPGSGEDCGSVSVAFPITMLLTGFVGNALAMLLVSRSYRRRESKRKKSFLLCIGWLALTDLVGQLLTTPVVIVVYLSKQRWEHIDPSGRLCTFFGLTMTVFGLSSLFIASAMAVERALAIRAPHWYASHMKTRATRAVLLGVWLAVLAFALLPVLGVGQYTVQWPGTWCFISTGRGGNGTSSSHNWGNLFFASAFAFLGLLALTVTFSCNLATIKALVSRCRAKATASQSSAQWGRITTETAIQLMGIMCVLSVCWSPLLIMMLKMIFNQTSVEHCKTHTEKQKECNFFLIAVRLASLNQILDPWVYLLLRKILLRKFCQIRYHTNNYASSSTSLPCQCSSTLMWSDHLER
Nature of the assay: [3H]-PGE2 binding; EP3 competition binding (SPA). The protocol:
Biological Example 1: [3H]-PGE2 Binding
EP3 competition binding was determined using the following materials and experimental conditions: • Beads=Perkin Elmer RPNQ0001 • [3H]PGE2=Perkin Elmer NET428025UC • 384-well plate=Perkin Elmer 6007290 • EP3 membrane=Millipore HTS092M • Membrane concentration=2 μg/well • Beads concentration=0.25 mg/well • [3H]-PGE2=2 nM; DMSO—0.1% • Binding buffer=50 mM Tris, 10 mM MgCl2, 1 mM EDTA, PH 7.4.
The reaction system was prepared by mixing 5 μl of unlabeled compound; 5 μl of diluted [3H]-PGE2; 5 μl of diluted membrane; and 15 μl of SPA beads dissolved in binding buffer (adding in the following sequence: Unlabeled compound, [3H]-PGE2, Membrane and Beads).
The binding buffer was removed from refrigeration (@ 4° C.) and allowed to warm to room temperature. Test compound (@ stock concentration of […] in DMSO) was serial dilutes (1:3) with 100% DMSO using Echo plate. Diluted test compound (30 nL) was dispensed to the 384-well assay plate (using Echo 550 Labcyte System). To each well was then added assay buffer (5 μl) and each well was spun. Beads were weighed out, dissolved in assay buffer to a concentration of 0.25 mg/15 μl. Original membrane was diluted with assay buffer to a concentration of 2 μg/5 μl. Original [3H]-PGE2 with diluted with assay buffer to a concentration of 12 nM. To each test well were then added diluted [3H]-PGE2 (5 μl), diluted membrane (5 μl), and dissolved beads (15 μl). The plate was equilibrated at room temperature on a plate shaker for 2 hours and then read with a TOPCOUNT scintillation plate reader. Results were analyzed using a Prism program with non-linear regression, one-site fit for Ki.

Ki data for 22 compounds are collected here from patent US20210253562A1, “ACYLSUFONAMIDE COMPOUNDS USEFUL AS EP3 RECEPTOR ANTAGONISTS” (Janssen Pharmaceutica NV, priority 2018, published 2021).

Turning to `O=C(NC/C(F)=C1\CCCc2cnn(C3CCN(c4ccc(F)cc4)CC3)c21)NS(=O)(=O)c1cc(Cl)c(Cl)s1` [Compound #154, (Z)-4,5-dichloro-N-((2-fluoro-2-(1-(1-(4-fluorophenyl)piperidin-4-yl)-1,4,5,6-tetrahydro-7H-indazol-7-ylidene)ethyl)carbamoyl)thiophene-2-sulfonamide], the Ki – broadly, the dissociation constant of the complex between target and ligand, obtained from inhibition or displacement – is 13 nM.
The value for `Cc1nc(C)c(S(=O)(=O)NC(=O)NC/C(F)=C2\CCCc3cnn(Cc4ccc(Cl)cc4Cl)c32)s1` [Compound #158, (Z)—N-((2-(1-(2,4-Dichlorobenzyl)-1,4,5,6-tetrahydro-7H-indazol-7-ylidene)-2-fluoroethyl)carbamoyl)-2,4-dimethylthiazole-5-sulfonamide] was 32 nM; that for `O=C(NC/C(F)=C1\COCc2cnn(C3CCN(c4ccc(F)cc4)CC3)c21)NS(=O)(=O)c1cc(Cl)c(Cl)s1` [Compound #144, (E)-4,5-dichloro-N-((2-fluoro-2-(1-(1-(4-fluorophenyl)piperidin-4-yl)-1,4-dihydropyrano[4,3-c]pyrazol-7(6H)-ylidene)ethyl)carbamoyl)thiophene-2-sulfonamide] was 62 nM.
`Cc1cc(S(=O)(=O)NC(=O)NC/C(F)=C2\CCCc3cnn(Cc4ccc(Cl)cc4Cl)c32)sc1C` [Compound #142, (Z)—N-((2-(1-(2,4-dichlorobenzyl)-1,4,5,6-tetrahydro-7H-indazol-7-ylidene)-2-fluoroethyl)carbamoyl)-4,5-dimethylthiophene-2-sulfonamide] registered an inhibitory constant (Ki) of 8 nM.
Next, `CC(=O)Nc1nc(C)c(S(=O)(=O)NC(=O)NC/C(F)=C2\CCCc3cnn(Cc4ccc(Cl)cc4Cl)c32)s1` [Compound #182, (Z)—N-(5-(N-((2-(1-(2,4-dichlorobenzyl)-1,4,5,6-tetrahydro-7H-indazol-7-ylidene)-2-fluoroethyl)carbamoyl)sulfamoyl)-4-methylthiazol-2-yl)acetamide]: 153 nM.
For the compound `CC(C)n1cc(S(=O)(=O)NC(=O)NC/C=C2\CCCc3cnn(Cc4ccc(Cl)cc4Cl)c32)cn1` [Compound #173, (E)-N-((2-(1-(2,4-dichlorobenzyl)-1,4,5,6-tetrahydro-7H-indazol-7-ylidene)ethyl)carbamoyl)-1-isopropyl-1H-pyrazole-4-sulfonamide], the inhibition constant Ki came to 59 nM.
With `Cn1ncc2cc(S(=O)(=O)NC(=O)NC/C(F)=C3\CCCc4cnn(Cc5ccc(Cl)cc5Cl)c43)ccc21` [Compound #195, (Z)—N-((2-(1-(2,4-dichlorobenzyl)-1,4,5,6-tetrahydro-7H-indazol-7-ylidene)-2-fluoroethyl)carbamoyl)-1-methyl-1H-indazole-5-sulfonamide], the Ki was 45 nM.
The compound `CN1CCC(n2ncc3c2/C(=C/CNC(=O)NS(=O)(=O)c2cc(Cl)c(Cl)s2)CCC3)CC1` [Compound #151, (E)-4,5-dichloro-N-((2-(1-(1-methylpiperidin-4-yl)-1,4,5,6-tetrahydro-7H-indazol-7-ylidene)ethyl)carbamoyl)thiophene-2-sulfonamide] returned a Ki of 102 nM.
Regarding `COc1cc(S(=O)(=O)NC(=O)NC/C(F)=C2\CCCc3cnn(Cc4ccc(Cl)cc4Cl)c32)ccc1Cl` [Compound #175, (Z)-4-Chloro-N-((2-(1-(2,4-dichlorobenzyl)-1,4,5,6-tetrahydro-7H-indazol-7-ylidene)-2-fluoroethyl)carbamoyl)-3-methoxybenzenesulfonamide], affinity was put at a Ki of 16 nM.
`Cc1cc(S(=O)(=O)NC(=O)NC/C=C2\CCCc3cnn(Cc4ccc(Cl)cc4Cl)c32)n(C)n1` [Compound #192, (E)-N-((2-(1-(2,4-dichlorobenzyl)-1,4,5,6-tetrahydro-7H-indazol-7-ylidene)ethyl)carbamoyl)-1,3-dimethyl-1H-pyrazole-5-sulfonamide] came in with an inhibition constant Ki of 6 nM.
`COc1nc2ccc(S(=O)(=O)NC(=O)NC/C=C3\CCCc4cnn(Cc5ccc(Cl)cc5Cl)c43)cc2o1` [Compound #177, (E)-N-((2-(1-(2,4-dichlorobenzyl)-1,4,5,6-tetrahydro-7H-indazol-7-ylidene)ethyl)carbamoyl)-2-methoxybenzo[d]oxazole-6-sulfonamide] returned an inhibition constant Ki of 1 nM.
Next, `COc1ccc(S(=O)(=O)NC(=O)NC/C(F)=C2\CCCc3cnn(Cc4ccc(Cl)cc4Cl)c32)cc1F` [Compound #159, (Z)—N-((2-(1-(2,4-Dichlorobenzyl)-1,4,5,6-tetrahydro-7H-indazol-7-ylidene)-2-fluoroethyl)carbamoyl)-3-fluoro-4-methoxybenzenesulfonamide]: 22 nM; `Cc1cc(Cl)ccc1Cc1nnn2c1/C(=C(\F)CNC(=O)NS(=O)(=O)c1cc(C)c(Cl)s1)CCC2` [Compound #188, (Z)-5-chloro-N-((2-(3-(4-chloro-2-methylbenzyl)-6,7-dihydro-[1,2,3]triazolo[1,5-a]pyridin-4(5H)-ylidene)-2-fluoroethyl)carbamoyl)-4-methylthiophene-2-sulfonamide]: 8 nM; `CC(C)n1cc(S(=O)(=O)NC(=O)NC/C(F)=C2\CCCc3cnn(Cc4ccc(Cl)cc4Cl)c32)cn1` [Compound #170, (Z)—N-((2-(1-(2,4-dichlorobenzyl)-1,4,5,6-tetrahydro-7H-indazol-7-ylidene)-2-fluoroethyl)carbamoyl)-1-isopropyl-1H-pyrazole-4-sulfonamide]: 612 nM.
The value for `Cc1cc(S(=O)(=O)NC(=O)NC/C(F)=C2\COCc3[nH]nc(Cc4ccc(Cl)cc4Cl)c32)sc1Cl` [Compound #190, (E)-5-chloro-N-((2-(3-(2,4-dichlorobenzyl)-1,7-dihydropyrano[3,4-c]pyrazol-4(5H)-ylidene)-2-fluoroethyl)carbamoyl)-4-methylthiophene-2-sulfonamide] was 1 nM; that for `Cn1nccc1S(=O)(=O)NC(=O)NC/C(F)=C1\CCCc2cnn(Cc3ccc(Cl)cc3Cl)c21` [Compound #168, (Z)—N-((2-(1-(2,4-dichlorobenzyl)-1,4,5,6-tetrahydro-7H-indazol-7-ylidene)-2-fluoroethyl)carbamoyl)-1-methyl-1H-pyrazole-5-sulfonamide] was 232 nM; that for `Cc1c(S(=O)(=O)NC(=O)NC/C=C2\CCCc3cnn(Cc4ccc(Cl)cc4Cl)c32)cnn1C` [Compound #172, (E)-N-((2-(1-(2,4-dichlorobenzyl)-1,4,5,6-tetrahydro-7H-indazol-7-ylidene)ethyl)carbamoyl)-1,5-dimethyl-1H-pyrazole-4-sulfonamide] was 4 nM.
Regarding `Cc1ncc(S(=O)(=O)NC(=O)NC/C(F)=C2\CCCc3cnn(Cc4ccc(Cl)cc4Cl)c32)cc1Cl` [Compound #197, (Z)-5-chloro-N-((2-(1-(2,4-dichlorobenzyl)-1,4,5,6-tetrahydro-7H-indazol-7-ylidene)-2-fluoroethyl)carbamoyl)-6-methylpyridine-3-sulfonamide], the affinity corresponds to a Ki of 8 nM.
Turning to `COc1ccc(S(=O)(=O)NC(=O)NC/C(F)=C2\COCc3cnn(Cc4ccc(Cl)cc4Cl)c32)cc1F` [Compound #161, (E)-N-((2-(1-(2,4-dichlorobenzyl)-1,4-dihydropyrano[4,3-c]pyrazol-7(6H)-ylidene)-2-fluoroethyl)carbamoyl)-3-fluoro-4-methoxybenzenesulfonamide], the inhibition constant (Ki) amounted to 57 nM.
In the case of `Cc1cc(S(=O)(=O)NC(=O)NC/C(F)=C2\CCCc3onc(Cc4ccc(Cl)cc4Cl)c32)sc1Cl` [Compound #181, (Z)-5-chloro-N-((2-(3-(2,4-dichlorobenzyl)-6,7-dihydrobenzo[d]isoxazol-4(5H)-ylidene)-2-fluoroethyl)carbamoyl)-4-methylthiophene-2-sulfonamide], the inhibition constant (Ki) is 6 nM.
`Cn1nccc1S(=O)(=O)NC(=O)NC/C=C1\CCCc2cnn(Cc3ccc(Cl)cc3Cl)c21` [Compound #171, (E)-N-((2-(1-(2,4-dichlorobenzyl)-1,4,5,6-tetrahydro-7H-indazol-7-ylidene)ethyl)carbamoyl)-1-methyl-1H-pyrazole-5-sulfonamide] gave an inhibition constant Ki of 18 nM.
For the compound `O=C(NC/C=C1\CCCc2cnn(C3CCN(Cc4ccccc4)CC3)c21)NS(=O)(=O)c1cc(Cl)c(Cl)s1` [Compound #148, (E)-N-((2-(1-(1-benzylpiperidin-4-yl)-1,4,5,6-tetrahydro-7H-indazol-7-ylidene)ethyl)carbamoyl)-4,5-dichlorothiophene-2-sulfonamide], the affinity corresponds to a Ki of 6 nM.
